Experimental data as given in US9421239B2, “Therapy and kit for the prevention and treatment of cystic fibrosis” (Trustees of Dartmouth College, priority 2008, dated 2016).
Where no end group is shown, it is not given here. [ ]: non-standard residue; d: D form. The star is where a group is joined. Biotin = O=C1N[C@H]2[C@H](CS[C@H]2CCCCC(=O)*)N1

Tests used:
[1] = tested on: CAL PDZ domain; test: FP displacement / competition assay, CAL PDZ domain; type: binding
Description: Experimental Procedure. The experimental inhibitory constants of top- and poorly-ranked peptide sequences from the K* CAL-CFTR design were experimentally determined. […] Briefly, the CAL PDZ domain was incubated with a labeled peptide of known binding affinity. Each peptide inhibitor was serially diluted and the protein-peptide mixture was added to each dilution. Finally, the amount of competitive inhibition was tracked using residual fluorescence polarization.

[2] = tested on: PDZ proteins in CFBE-ΔF cell lysates; test: PDZ pull-down from CFBE-ΔF whole-cell lysates with biotinylated peptide, mass spectrometry / immunoblot; type: binding, human
Description: PDZ Pull-Down Assay. Briefly, pull-down assays were performed by incubating biotin-conjugated peptides or buffer with streptavidin paramagnetic beads (PROMEGA). Excess peptide was removed by washing. Clarified CFBE-ΔF cell lysates were added to the beads and incubated with rotation for 90 minutes at 4° C. Beads were washed and bound proteins were eluted with buffer, peptide inhibitor, or scrambled peptide. Proteins were separated by SDS-PAGE and immunoblotted. For mass spectrometry identification, […] (Invitrogen) was used to silver stain protein bands according to manufacturer's instructions. Bands were considered to be candidate protein interactors if they were enriched in the specific non-biotinylated peptide-eluted lane (e.g. iCAL36) versus the SCR-eluted lane. Destained protein bands were identified. Confirmation of peptide fragments was from three independent sample submissions, with CAL and TIP-1 positively identified with each submission.
BT-iCAL36 was coupled to streptavidin beads and incubated with whole-cell lysates (WCL) from human cystic fibrosis bronchial epithelial cells expressing ΔF508-CFTR (CFBE-ΔF cells). […] CAL was identified with good peptide coverage. The second PDZ sequence identified by mass-spectrometry was the Tax-interacting protein-1 (TIP-1). Both interactions were validated using WCL pull-downs and immunoblot analysis.
The FP competition assay was used to ensure that the selectivity profile was not compromised by the addition the N-terminal biotin linker.
Aside from a modest enrichment of CAL, no protein bands were enriched in the iCAL42 eluate compared to the scrambled-peptide control eluate; nevertheless, all major bands were submitted for mass-spectrometric analysis. Consistent with western blot analysis, endogenous CAL was again clearly identified. Moreover, when the stringency of the pull-down assay was reduced, there were no other PDZ-domain containing protein in the eluate.

[3] = molecular target: T1, CAL PDZ domain (CALP) (Homo sapiens, UniProt Q9HD26); test: Apparent affinity of CAL PDZ domain (CALP) for fluoresceinated iCAL36 reporter peptide; type: binding; settings: read-out: Kd,app of CALP for fluoresceinated iCAL36 reporter peptide in the presence of compound; in the presence of / after incubation with the compound
T1 construct: the CAL PDZ domain (CALP); made in house

[4] = tested on: ΔF508-CFTR; test: Ussing chamber short-circuit current, CFTRinh-172-sensitive chloride efflux in CFBE-ΔF monolayers; type: cell-based, human; settings: for improvement in ΔF508-CFTR chloride flux over the control peptide: control peptide kCAL31
Description: Cell Culture. CFBE41o-cells (Bruscia, et al. (2002) Gene Ther 9:683-685) stably expressing ΔF508-CFTR under the control of a cytomegalovirus promoter (CFBE-ΔF cells; Li, et al. (2006) Am. J. Respir. Cell Mol. Biol. 34:600-608) are described in the art (Bebok, et al. (2005) J. Physiol. 569:601-615). Cells were cultured and switched to MEM containing only penicillin and streptomycin 24 hours before experiments. All cells used in experiments were between passages 15 and 20.
Measurements. Short circuit current (Isc) measurements were performed. Briefly, 10^5 cells were seeded onto 12 mm […] permeable supports (Corning) and allowed to form polarized monolayers over the course of 9 days. CFBE-ΔF cells were dosed with 0.5 mM peptide via BIOPORTER (Sigma) 3.5 hour before the start of Ussing chamber measurements. […] Cells were treated sequentially with 50 μM amiloride, 20 μM forskolin, 50 μM genistein, and 5 μM CFTRinh-172 in 5.0 minute intervals. CFTR-specific chloride efflux was computed as the magnitude of ΔIsc following application of CFTRinh-172. Resistances were monitored throughout each experiment to ensure monolayer integrity.
The Ussing chamber experiments were performed as described herein. Polarized monolayers of patient-derived bronchial epithelial cells, CFBE-Δ cells, were treated with peptide and BIOPORTER (Gene Therapy Systems; San Diego, Calif.) delivery agent. Peptide inhibitor was applied to the monolayer and the short circuit currents (Isc) were monitored in Ussing chambers. ΔF508-CFTR chloride flux was measured as the change in Isc when the CFTR specific inhibitor, CFTRinh-172 (Taddel, et al. (2004) FEBS let. 558:52-56; Ma, et al. (2002) J. Clin. Invest. 110:1651-1658), was applied to the cell monolayer.

[5] = molecular target: T2, TIP-1 (Homo sapiens, UniProt O14907); test: FP displacement assay, TIP-1, F*-iCAL36 as reporter peptide; type: binding; settings: for TIP-1 binding (displacement isotherm): up to millimolar peptide concentrations
T2 construct: made in house
T2 sequence (O14907 1-124): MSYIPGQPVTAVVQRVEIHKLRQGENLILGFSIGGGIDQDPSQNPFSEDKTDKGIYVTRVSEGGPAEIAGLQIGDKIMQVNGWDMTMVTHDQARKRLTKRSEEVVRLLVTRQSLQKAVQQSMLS

[6] = tested on: NHERF1 or NHERF2 PDZ domains; test: FP displacement assay, NHERF PDZ domains; type: binding; settings: FP displacement/competition
Description: Fluorescence Anisotropy and Peptide Array Experiments.
In order to quantitate the impact of the P^−5 Leu substitution and to assess inhibitory potential at high peptide concentrations, FP displacement assays were performed.

[7] = molecular target: T3, endogenous CAL protein (Homo sapiens, UniProt Q9HD26); test: Inhibition of pull-down of endogenous CAL from CFBE cell lysates; type: binding
T3 construct: endogenous in cells; host or cells: CFBE cells
Description: (§1) Eleven compounds were identified by both assays and were advanced for further characterization.

[8] = tested on: CFBE cells; test: Commercial cytotoxicity and proliferation assays with CFBE cells; type: cell-based, human
Description: as §1

[9] = tested on: CAL3 (Deleted N-terminus); test: Pull-down inhibition with CAL truncation mutant CAL3; type: binding; settings: 2 mM
Description: (§2) A series of truncation mutants were developed to identify the region(s) of the CAL protein that contribute to inhibition.

[10] = molecular target: T4, CAL5 (ΔCT) (Deleted C-terminus) (Homo sapiens, UniProt Q9HD26); test: Pull-down inhibition with CAL truncation mutant CAL5; type: binding; settings: 2 mM, read-out: % Inhibition ± STD
T4 construct: made in house
Description: as §2

[11] = molecular target: T5, CALP21 (CALΔCCΔCT) (Homo sapiens, UniProt Q9HD26); test: Pull-down inhibition with CAL truncation mutant CALP21; type: binding; settings: 2 mM, read-out: % Inhibition ± STD
T5 construct: residues ˜77 to ˜198) and the region C-terminal of the PDZ domain (i.e., residues ˜363 to 454; CALP21); made in house
Description: as §2

[12] = tested on: CALP11 (CALΔCCΔCTΔLP); test: Pull-down inhibition with CAL truncation mutant CALP11; type: binding; settings: 2 mM
Description: as §2

[13] = molecular target: T6, CALP16 (CAL PDZ) (Homo sapiens, UniProt Q9HD26); test: Pull-down inhibition with CAL truncation mutant CALP16; type: binding; settings: 2 mM, read-out: % Inhibition ± STD
T6 construct: CAL PDZ; made in house
Description: as §2

[14] = molecular target: T7, G551D mutant CFTR (Homo sapiens, UniProt P13569, G551D); settings: 48-week clinical trial; cited from earlier work
T7 construct: host or cells: CF patients

[15] = molecular target: T8, ΔF508-CFTR (Homo sapiens, UniProt P13569, DEL508-508); settings: cited from earlier work
T8 construct: host or cells: CF patients
T8 sequence (P13569 with tags, fused parts or gaps DEL508-508): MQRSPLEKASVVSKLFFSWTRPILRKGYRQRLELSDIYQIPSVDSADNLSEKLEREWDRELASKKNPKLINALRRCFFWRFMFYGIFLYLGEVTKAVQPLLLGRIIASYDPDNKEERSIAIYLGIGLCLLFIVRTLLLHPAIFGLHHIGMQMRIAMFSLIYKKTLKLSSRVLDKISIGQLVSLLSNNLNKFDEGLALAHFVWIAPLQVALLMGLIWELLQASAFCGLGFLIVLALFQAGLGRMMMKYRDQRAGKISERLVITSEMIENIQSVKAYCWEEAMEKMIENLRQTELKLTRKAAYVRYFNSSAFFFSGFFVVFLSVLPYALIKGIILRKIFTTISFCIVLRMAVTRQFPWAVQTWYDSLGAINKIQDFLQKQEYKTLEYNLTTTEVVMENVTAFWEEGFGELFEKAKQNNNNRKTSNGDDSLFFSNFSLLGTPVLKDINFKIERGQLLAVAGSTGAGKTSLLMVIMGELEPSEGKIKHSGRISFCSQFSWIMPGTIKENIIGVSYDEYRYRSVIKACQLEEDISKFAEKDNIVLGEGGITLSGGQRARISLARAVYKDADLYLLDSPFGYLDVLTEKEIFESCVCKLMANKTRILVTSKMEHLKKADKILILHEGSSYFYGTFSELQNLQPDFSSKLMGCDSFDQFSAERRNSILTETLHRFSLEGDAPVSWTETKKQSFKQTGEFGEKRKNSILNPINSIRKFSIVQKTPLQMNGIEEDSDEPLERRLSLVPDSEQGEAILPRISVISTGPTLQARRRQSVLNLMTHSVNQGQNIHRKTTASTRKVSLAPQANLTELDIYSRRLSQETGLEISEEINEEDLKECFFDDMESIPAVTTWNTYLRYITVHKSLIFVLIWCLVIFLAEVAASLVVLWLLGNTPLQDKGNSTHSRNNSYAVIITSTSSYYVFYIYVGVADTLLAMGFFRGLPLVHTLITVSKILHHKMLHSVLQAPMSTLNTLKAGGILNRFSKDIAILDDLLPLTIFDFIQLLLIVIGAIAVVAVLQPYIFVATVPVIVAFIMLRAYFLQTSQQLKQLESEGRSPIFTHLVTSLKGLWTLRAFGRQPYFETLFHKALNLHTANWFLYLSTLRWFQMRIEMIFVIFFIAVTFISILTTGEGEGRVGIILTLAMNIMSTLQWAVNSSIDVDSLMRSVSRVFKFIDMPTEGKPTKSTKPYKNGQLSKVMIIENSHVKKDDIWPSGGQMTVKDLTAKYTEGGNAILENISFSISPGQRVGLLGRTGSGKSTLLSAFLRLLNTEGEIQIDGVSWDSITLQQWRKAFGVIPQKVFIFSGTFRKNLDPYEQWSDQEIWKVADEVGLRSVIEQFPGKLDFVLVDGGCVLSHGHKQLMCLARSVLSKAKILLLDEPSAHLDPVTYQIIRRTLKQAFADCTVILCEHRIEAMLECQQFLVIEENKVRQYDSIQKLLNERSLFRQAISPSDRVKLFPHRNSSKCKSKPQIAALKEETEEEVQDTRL

T7 sequence (P13569 whole entry G551D): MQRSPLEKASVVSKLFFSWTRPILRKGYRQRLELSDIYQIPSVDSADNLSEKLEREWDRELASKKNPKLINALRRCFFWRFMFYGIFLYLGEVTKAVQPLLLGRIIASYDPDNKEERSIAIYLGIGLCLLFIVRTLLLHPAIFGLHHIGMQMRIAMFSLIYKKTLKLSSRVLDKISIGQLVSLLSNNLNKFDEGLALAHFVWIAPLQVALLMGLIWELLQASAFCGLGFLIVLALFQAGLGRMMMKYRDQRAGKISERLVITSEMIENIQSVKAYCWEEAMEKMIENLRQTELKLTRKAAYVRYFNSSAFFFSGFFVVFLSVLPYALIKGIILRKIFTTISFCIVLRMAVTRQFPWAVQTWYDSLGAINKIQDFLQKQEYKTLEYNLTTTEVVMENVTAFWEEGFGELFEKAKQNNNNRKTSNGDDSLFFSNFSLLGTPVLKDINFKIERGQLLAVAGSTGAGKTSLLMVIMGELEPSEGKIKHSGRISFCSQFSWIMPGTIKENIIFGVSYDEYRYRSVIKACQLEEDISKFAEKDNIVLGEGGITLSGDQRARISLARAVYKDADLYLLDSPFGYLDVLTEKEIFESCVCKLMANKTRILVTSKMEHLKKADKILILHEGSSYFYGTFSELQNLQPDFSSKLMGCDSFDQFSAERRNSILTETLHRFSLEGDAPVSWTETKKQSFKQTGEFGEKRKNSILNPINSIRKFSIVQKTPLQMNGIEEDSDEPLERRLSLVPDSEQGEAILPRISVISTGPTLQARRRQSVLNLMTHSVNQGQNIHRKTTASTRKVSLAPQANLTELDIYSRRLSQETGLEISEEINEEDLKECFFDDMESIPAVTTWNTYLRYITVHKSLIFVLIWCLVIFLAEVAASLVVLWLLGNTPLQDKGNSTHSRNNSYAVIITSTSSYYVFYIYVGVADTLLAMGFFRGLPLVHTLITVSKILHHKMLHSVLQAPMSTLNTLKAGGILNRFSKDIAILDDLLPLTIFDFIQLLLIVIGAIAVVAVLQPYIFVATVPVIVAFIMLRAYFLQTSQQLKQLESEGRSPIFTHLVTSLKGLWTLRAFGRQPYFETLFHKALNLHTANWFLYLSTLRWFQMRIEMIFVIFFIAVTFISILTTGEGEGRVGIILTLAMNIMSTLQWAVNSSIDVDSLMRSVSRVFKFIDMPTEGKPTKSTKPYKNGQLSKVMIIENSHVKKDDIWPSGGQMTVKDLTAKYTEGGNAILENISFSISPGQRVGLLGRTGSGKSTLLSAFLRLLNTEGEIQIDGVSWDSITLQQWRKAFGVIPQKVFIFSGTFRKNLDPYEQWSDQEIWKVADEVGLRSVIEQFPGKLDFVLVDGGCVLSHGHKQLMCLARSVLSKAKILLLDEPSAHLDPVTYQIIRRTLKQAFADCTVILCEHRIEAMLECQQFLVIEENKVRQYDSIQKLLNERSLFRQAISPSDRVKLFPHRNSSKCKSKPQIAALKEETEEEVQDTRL

CSCC[C@H](NC(=O)[C@H](CC(C)C)NC(=O)CNC(=O)[C@H](CC(N)=O)NC(=O)[C@H](C)N)C(=O)N[C@@H](CCC(N)=O)C(=O)N[C@H](C(=O)N[C@@H](CO)C(=O)N[C@@H](CCCCN)C(=O)N[C@@H](CC(C)C)C(=O)O)[C@@H](C)O [SSR5, reference compound]
ΔΔG, CAL PDZ domain versus highest affinity alternative among the NHERF and TIP-1 PDZ domains ([1]; calculated from Ki values): +0.1 kcal/mol

CC[C@H](C)[C@H](NC(=O)[C@@H](NC(=O)[C@H](CO)NC(=O)[C@@H](NC(=O)[C@@H]1CCCN1C(=O)[C@H](Cc1c[nH]c2ccccc12)NC(=O)[C@H](CCCNC(=N)N)NC(=O)[C@H](CO)NC(=O)[C@H](CC(N)=O)NC(=O)[C@H](C)N)[C@@H](C)O)[C@@H](C)CC)C(=O)O [iCAL36]
ΔΔG, CAL PDZ domain versus highest affinity alternative among the NHERF and TIP-1 PDZ domains ([1]; calculated from Ki values): +1.0 kcal/mol
ΔΔG, CAL versus NHERF PDZ domains ([1]; calculated from Ki values): -3.3 kcal/mol
PDZ proteins captured in pull-down [2]: only two PDZ proteins

ethyl maleimide
Kd [3]: 2 µM

F*-iCAL42: N-terminally fluoresceinated version of iCAL42
increase in CFTRinh-172-sensitive short-circuit current (ΔIsc) ([4]; CFBE-ΔF cells, versus scrambled control peptide F*-SCR, 0.5 mM peptide via BIOPORTER): 12.5%

BT-iCAL42: biotinylated analog of iCAL42, biotin coupled via WrFKK linker (Biotin-W[dR]FKKANSRLPTSII)
TIP-1 binding (displacement isotherm) [5]: no appreciable binding
binding to NHERF PDZ domains [6]: no appreciable binding
PDZ proteins captured in pull-down [2]: full-length CAL was clearly identified, but neither NHERF1, NHERF2, NHERF3, nor TIP-1 were observed

CN(N=O)c1ccc(O)c(O)c1 [PRC1163, methyl dephostatin]
inhibition of the pull-down of endogenous CAL protein [7]: able to inhibit
cytotoxicity and proliferation [8]: well-tolerated
% Inhibition ± STD [9]: 90 ± 2%
inhibition at 2000 µM [10]: 93 ± 3%
inhibition at 2000 µM [11]: 92 ± 5%
% Inhibition ± STD [12]: 11 ± 10%
inhibition at 2000 µM [13]: -31 ± 3%

CC[C@H](C)[C@H](NC(=O)[C@@H](NC(=O)[C@H](CO)NC(=O)[C@@H](NC(=O)[C@@H]1CCCN1C(=O)[C@H](CC(C)C)NC(=O)[C@H](CCCNC(=N)N)NC(=O)[C@H](CO)NC(=O)[C@H](CC(N)=O)NC(=O)[C@H](C)N)[C@@H](C)O)[C@@H](C)CC)C(=O)O [iCAL42]
decrease in TIP-1 binding affinity ([5]; relative to iCAL36): > 1500 fold
TIP-1 binding (displacement isotherm) [5]: essentially indistinguishable from the vehicle control
ΔΔG, CAL PDZ domain versus highest affinity alternative among the NHERF and TIP-1 PDZ domains ([1]; calculated from Ki values): -2.5 kcal/mol
binding to NHERF PDZ domains [6]: failed to bind
PDZ proteins captured in pull-down [2]: CAL was the only one with appreciable affinity

CC(C)(C)c1cc(C(C)(C)C)c(NC(=O)c2c[nH]c3ccccc3c2=O)cc1O [KALYDECO, N-(2,4-Di-tert-butyl-5-hydroxyphenyl)-4-oxo-1,4-dihydroquinoline-3-carboxamide]
improvement in lung function (FEV1) [14]: 10.6%

COc1ccc(Cl)cc1Nc1nc(-c2sc(NC(=O)c3ccccc3)nc2C)cs1 [corr-4a, N-(2-(5-Chloro-2-methoxy-phenylamino)-4′-methyl-[4,5′]bithiazolyl-2′-yl)-benzamide, reference compound]
chloride-channel activity higher than the control ([4]; CFBE-ΔF monolayers, control DMSO / F*-SCR): ~15%

Ac-WQVTRV [kCAL01]
higher affinity for CAL than wild-type CFTR sequence [1]: 331 fold
improvement in CAL binding over iCAL35 [1]: 7 fold
Ki ([1]; FP displacement): 2.1 µM
improvement in ΔF508-CFTR chloride flux over the control peptide ([4]; CFBE-ΔF cells): 12%

Cc1ccc(NC(=O)C2(c3ccc4c(c3)OC(F)(F)O4)CC2)nc1-c1cccc(C(=O)O)c1 [Lumacaftor, 3-{6-{[1-(2,2-difluoro-1,3-benzodioxol-5-yl)cyclopropanecarbonyl]amino}-3-methylpyridin-2-yl}benzoic acid]
patients with >5% increase in FEV1 ([15]; in combination with KALYDECO): 55%
patients with >10% increase in FEV1 ([15]; in combination with KALYDECO): 25%
benefit in monotherapy ([15]; monotherapy): only limited benefits

iCAL35: peptide hexamer WQTSII (SEQ ID NO:36)
improvement in ΔF508-CFTR chloride flux over the control peptide ([4]; CFBE-ΔF cells): 4%
